What was measured:
RUCA = test: IC50 in endometrial cancer cell lines (untitled table); format: cell-based; conditions: PTEN^del, ER+, Type I
ECC-1 = test: as above; format: cell-based; conditions: Homo sapiens, PTEN^del, PIK3R1^mut, ER+, PR+, Type I
Ishikawa = test: as above; format: cell-based; conditions: Homo sapiens, PTEN^del, PIK3R1^mut, ER+, PR+, Type I
HEC-50 = test: as above; format: cell-based; conditions: Hec50, PIK3R1^mut, KRAS^mut, Type II
RL95-2 = test: as above; format: cell-based; conditions: Homo sapiens, PIK3R1^mut/PTEN^del/NF2/BRCA2, Type II
KLE = test: as above; format: cell-based; conditions: Homo sapiens, FBXW7^mut, Type II
HEC-1B = test: as above; format: cell-based; conditions: Homo sapiens, PIK3CA^mut, PIK3R2^mut, PTEN^Loss(protein) and KRAS^mut, Type II
AN3CA = test: as above; format: cell-based; conditions: Homo sapiens, AN3-CA, PTEN^del, FBXW7, FGFR2^N549K, K310R, Type II
HEC-1A = test: as above; format: cell-based; conditions: Homo sapiens, PIK3CA^G1049R, PIK3R2^mut, KRAS^mut, Type II
MFE 280 = test: as above; format: cell-based; conditions: Homo sapiens, PIK3CA^G1047Y, RB^del, FGFR2^5252W, Type II
MFE 296 = test: as above; format: cell-based; conditions: Homo sapiens, PTEN^del, FGFR2^N549K, UTX^del, Type II
MFE-280 cells = test: 48-hour caspase 3/7 activation assay (apoptosis induction); format: cell-based; conditions: single agent
Procedure: (§1) In vitro combination assessment: The effects of combinations of the present invention were evaluated using combination index isobologram analysis for in vitro assessment. The efficacy parameters were the effects in a 48-hour caspase 3/7 activation assay. Briefly, cells were plated in 384-well plate with 25 μL medium. After 24 hours, 5 μL of experimental media containing: • either A alone, or • B alone, or • the combination of A (as component A) plus either B, (as component B), at different ratios (***) were used to make serial 3-fold dilutions to generate response curves with 7 concentrations. Experiments were conducted in triplicates. Caspase 3/7 assay was conducted at 48 hours after compound exposure.
FIG. 1: Synergistic combination of PI3K inhibitor compound A (Copanlisib) with FGFR inhibitor compound B in MFE-280 cells (PIK3CA^G1047Y, FGFR2^S252W). The combination of PI3K inhibitor compound A (copanlisib) and FGFR inhibitor compound B was tested and compared to the single agent activity in MFE 280 to address the activity in apoptosis induction using a cleaved caspase 3/7 assay. MFE 280 cells are bearing both activating PIK3CA and FGFR2 mutations.

MFE-296 cells = test: as above; format: cell-based; conditions: single agent
Procedure: as §1
FIG. 2: Synergistic combination of PI3K inhibitor compound A (Copanlisib) with FGFR inhibitor compound B in MFE-296 cells (PTEN^del, FGFR2^N549K). The combination of PI3K inhibitor compound A (copanlisib) and FGFR inhibitor compound B was tested and compared to the single agent activity in MFE 296 to address the activity in apoptosis induction using a cleaved caspase 3/7 assay. MFE 296 cells are bearing activating FGFR2 mutation and loss-of-PTEN.

[1] = tested on: MFE 280 xenograft tumor model; test: In vivo efficacy in tumor xenograft model; design: species or system nude mice; conditions: for T/C (tumor area) / T/C (tumor weight): study end
Procedure: (§2) The in vivo efficacy was evaluated in tumor xenograft models in nude mice with established human tumor cell lines at the MTD and sub-MTD dosages. Tumor cells were cultivated according to ATCC protocols in recommended media contained 10% FCS. Cells were harvested for transplantation in a subconfluent (70%) state. The volume of implantation was 100 μl for mice. When the tumors were approximately in size of 25-50 mm^2, the animals were randomized to treatment and control groups and treatment was started. Treatment of each animal was based on individual body weight. The optimal formulation, application route and schedule were used for each compound (see table 2). Oral administration (p.o.) was carried out via a gastric tube. The oral application volumes were 10 ml/kg and the intravenous application volumes were 10 ml/kg. Tumor area (product of the longest diameter and its perpendicular) using a caliper. The animal body weight was monitored as a measure for treatment-related toxicity. Measurement of tumor area and body weight was performed 2-3 times weekly. T/C ratios (Treatment/Control) were calculated with final tumor areas. Treatment responses were evaluated by means of the clinically-used RECIST criteria (complete response, partial response, stable disease and progressive disease) and response rates were calculated accordingly (RR=number of animals with complete and partial response).
FIGS. 3A and 3B: Synergistic combination of PI3K inhibitor compound A (Copanlisib) with FGFR inhibitor compound B in MFE-280 xenograft tumor model. The combination of PI3K inhibitor compound A (copanlisib) and FGFR inhibitor compound B was tested and compared to the single agent activity and the SoC doxorubicin in MFE 280, an endometrial tumor model bearing both activating PIK3CA and FGFR2 mutations. At a tumor size of about 40 mm^2 the subcutaneously growing MFE-280 tumors were treated intravenously with two different doses of compound A (copanlisib), 14 (filled triangles)/10 (open triangles) mg/kg, and 7 mg/kg) and in combination of compound A and compound B. The dosing schedule for compound A is depicted in FIG. 3A with triangles. […] Doxorubicin was applied intravenously 1 time every 14 days as a SoC reference.

[2] = Body weight as a measure for treatment-related toxicity in MFE-280 xenograft study; conditions: mouse, in vivo, 7 mg/kg
Procedure: as §2, with “response). […]” for “response).”

[3] = Phase I dose escalation study, maximum tolerated dose; conditions: human, in vivo, iv; intravenously over 60 minutes on days 1, 8, 15 of every 28 day cycle
Procedure: (§3) In a phase I dose escalation study, subjects were treated with Compound A (copanlisib) administered intravenously over 60 minutes on days 1, 8, and 15 of every 28 day cycle. Seventeen subjects were treated in 5 dose escalation cohorts (0.1, 0.2, 0.4, 0.8, and 1.2 mg/kg), and the maximum tolerated dose (MTD) was determined to be 0.8 mg/kg. Additional patients were enrolled into the study in 3 expansion cohorts treated at the MTD to assess safety, pharmacokinetics, biomarkers, and clinical benefit in selected patient populations, including solid tumors (n=25), non-Hodgkin lymphoma (NHL; n=9), and diabetic solid tumor patients (n=6; treated at 0.4 mg/kg).

endometrial cancer = test: Phase I study, clinical outcomes in endometrial cancer patients; format: in vivo, human
Procedure: as §3
PIK3CA, BRAF, and KRAS mutations were tested using digital PCR on archival tumor samples and cell free DNA isolated from plasma. Next generation sequencing (NGS) of a panel of tumor genes and immunohistochemistry (IHC) for PTEN protein were also performed on archival tumor samples. […] Of the 2 endometrial cancer patients with extended SD lasting more than 8 cycles, PTEN data could only be generated for 1 (patient #2117), and this tumor was also PTEN-negative by IHC (Table 4). The other endometrial cancer patient with extended SD (with 24.3% tumor shrinkage) harbored a KRAS tumor mutation (Table 4). […] Activation of PI3K pathway signaling via a number of mechanisms alone or in combination, such as PTEN loss and/or mutation, PIK3CA mutation, and/or KRAS mutation, may enrich Compound A (copanlisib) activity in this population.

[4] = Compound A (14)10 mg/kg i.v. Q2D
[5] = Pt 2004, 0.4 mg/kg (40 mg), stage IV
[6] = Pt 2116, 0.8 mg/kg (59 mg), stage IV
[7] = Pt 2117, 0.8 mg/kg (51 mg), stage IIIC
[8] = Doxorubicin Q14D (SoC reference)

COc1c(OCCCN2CCOCC2)ccc2c1N=C(NC(=O)c1cnc(N)nc1)N1CCN=C21 [Compound A, 2-amino-N-[7-methoxy-8-(3-morpholin-4-ylpropoxy)-2,3-dihydroimidazo[1,2-c]quinazolin-5-yl]pyrimidine-5-carboxamide]
IC50 (RUCA): 13.7 nM
IC50 (ECC-1): 161 nM
IC50 (Ishikawa): 373 nM
IC50 (HEC-50): 64.6 nM
IC50 (RL95-2): 144 nM
IC50 (KLE): < 6.86 nM
IC50 (HEC-1B): < 6.86 nM
IC50 (AN3CA): < 6.86 nM
IC50 (HEC-1A): < 6.86 nM
IC50 (MFE 280): < 6.86 nM
IC50 (MFE 296): < 6.86 nM
concentration up to which no apoptosis induction was shown (cleaved caspase 3/7) (MFE-280 cells): > 5 µM
concentration up to which no apoptosis induction was shown (cleaved caspase 3/7) (MFE-296 cells): > 5 µM
CR (complete response) ([1]; Compound A 7 mg/kg i.v. Q2D): 0%
PD (progressive disease) ([1]; Compound A 7 mg/kg i.v. Q2D): 25%
PR (partial response) ([1]; Compound A 7 mg/kg i.v. Q2D): 25%
RR (response rate) ([1]; Compound A 7 mg/kg i.v. Q2D): 25%
T/C (tumor area) ([1]; Compound A 7 mg/kg i.v. Q2D): 0.40
T/C (tumor weight) ([1]; Compound A 7 mg/kg i.v. Q2D): 0.24
CR (complete response) [1, 4]: 0%
PD (progressive disease) [1, 4]: 0%
PR (partial response) [1, 4]: 37.5%
RR (response rate) [1, 4]: 37.5%
T/C (tumor area) [1, 4]: 0.34
T/C (tumor weight) [1, 4]: 0.16
reduction of tumor weight ([1]; compound A 7 mg/kg): ~76%
reduction of tumor weight ([1]; compound A (14)10 mg/kg): approximately 84%
body weight loss compared to starting body weight [2]: No body weight loss
MTD [3]: 0.8 mg/kg
clinical benefit (patients with CR, PR or SD) (endometrial cancer; 4 of 5 endometrial cancer patients): 80%
Best % change in tumor size from screening (endometrial cancer; [5]): −24.3%
Best response (endometrial cancer; [5]): SD 8 cycles
Best % change in tumor size from screening (endometrial cancer; Pt 2008, 0.8 mg/kg (40 mg), stage IV): 2.4%
Best % change in tumor size from screening (endometrial cancer; [6]): −8.7%
Best response (endometrial cancer; [6]): SD 2 cycles
Best % change in tumor size from screening (endometrial cancer; [7]): −9.1%
Best response (endometrial cancer; [7]): SD 8 cycles
Best % change in tumor size from screening (endometrial cancer; Pt 3106, 0.8 mg/kg (46 mg, then 37 mg), stage IV): −61.8%
tumor shrinkage (endometrial cancer; endometrial cancer patient with extended SD and KRAS tumor mutation): 24.3%

COCc1c(-c2cc3cc(C)cc(OC)c3s2)c2c(N)ncnn2c1CN1CCNC(=O)C1 [Compound B, 4-{[4-Amino-6-(methoxymethyl)-5-(7-methoxy-5-methyl-1-benzothiophen-2-yl)pyrrolo[2,1-f][1,2,4]triazin-7-yl]methyl}piperazin-2-one]
concentration up to which no apoptosis induction was shown (cleaved caspase 3/7) (MFE-280 cells): > 10 µM
concentration up to which no apoptosis induction was shown (cleaved caspase 3/7) (MFE-296 cells): > 10 µM
CR (complete response) ([1]; Compound B 75 mg/kg p.o. QD): 12.5%
PD (progressive disease) ([1]; Compound B 75 mg/kg p.o. QD): 12.5%
PR (partial response) ([1]; Compound B 75 mg/kg p.o. QD): 0%
RR (response rate) ([1]; Compound B 75 mg/kg p.o. QD): 12.5%
T/C (tumor area) ([1]; Compound B 75 mg/kg p.o. QD): 0.39
T/C (tumor weight) ([1]; Compound B 75 mg/kg p.o. QD): 0.22
tumor growth inhibition ([1]; compound B, at the end of the study): 78%

COc1cccc2c1C(=O)c1c(O)c3c(c(O)c1C2=O)C[C@@](O)(C(=O)CO)C[C@@H]3O[C@H]1C[C@H](N)[C@H](O)[C@H](C)O1 [Doxorubicin, reference compound]
CR (complete response) [1, 8]: 0%
PD (progressive disease) [1, 8]: 37.5%
PR (partial response) [1, 8]: 12.5%
RR (response rate) [1, 8]: 12.5%
T/C (tumor area) [1, 8]: 0.51
T/C (tumor weight) [1, 8]: 0.39
tumor growth inhibition assessed by tumor weight ([1]; SoC Doxorubicin): 61%

Source: patent US10406162B2, “Substituted 2,3-dihydroimidazo[1,2-C]quinazoline-containing combinations” (BAYER PHARMA AKTIENGESELLSCHAFT, priority 2015, dated 2019)
